According to PubChem BioAssay (NCI):
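48-hour exposure; five concentrations; linearly interpolated endpoints. TGI marks complete inhibition of growth.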

Key:
Experiment in all cases: NCI tumour cell line growth inhibition, 48 h
[1] = system: 786-0 renal
[2] = system: A549 NSCLC
[3] = system: ACHN renal
[4] = system: CAKI-1 renal
[5] = system: CCRF-CEM leukemia
[6] = system: COLO 205 colon
[7] = system: DU-145 prostate
[8] = system: EKVX NSCLC
[9] = system: HCC-2998 colon
[10] = system: HCT-116 colon
[11] = system: HL-60(TB) leukemia
[12] = system: HOP-62 NSCLC
[13] = system: HOP-92 NSCLC
[14] = system: HS 578T breast
[15] = system: HT29 colon
[16] = system: IGROV1 ovarian
[17] = system: K-562 leukemia
[18] = system: KM12 colon
[19] = system: LOX IMVI melanoma
[20] = system: M14 melanoma
[21] = system: MALME-3M melanoma
[22] = system: MCF7 breast
[23] = system: MDA-MB-231 breast
[24] = system: MDA-MB-435
[25] = system: MDA-N
[26] = system: MOLT-4 leukemia
[27] = system: NCI-H226 lung
[28] = system: NCI-H23 lung
[29] = system: NCI-H460 lung
[30] = system: NCI-H522 lung
[31] = system: NCI/ADR-RES ovarian
[32] = system: OVCAR-3 ovarian
[33] = system: OVCAR-4 ovarian
[34] = system: OVCAR-5 ovarian
[35] = system: OVCAR-8 ovarian
[36] = system: PC-3 prostate
[37] = system: RPMI-8226 leukemia
[38] = system: RXF 393 renal
[39] = system: SF-268 CNS
[40] = system: SF-295 CNS
[41] = system: SF-539 CNS
[42] = system: SK-MEL-28 melanoma
[43] = system: SK-MEL-5 melanoma
[44] = system: SK-OV-3 ovarian
[45] = system: SN12C renal
[46] = system: SNB-19 CNS
[47] = system: SNB-75 CNS
[48] = system: SR leukemia
[49] = system: SW-620 colon
[50] = system: T-47D breast
[51] = system: TK-10 renal
[52] = system: UACC-257 melanoma
[53] = system: UACC-62 melanoma
[54] = system: UO-31 renal
[55] = system: A498 renal
[56] = system: HCT-15 colon
[57] = system: SK-MEL-2 melanoma
[58] = system: U251 CNS
[59] = system: BT-549 breast

O=C1c2cscc2C(=O)c2c(OCc3ccccc3)ccc(OCc3ccccc3)c21
TGI [1]: > 100 µM
TGI [2]: > 100 µM
TGI [3]: > 100 µM
TGI [4]: > 100 µM
TGI [5]: > 100 µM
TGI [6]: > 100 µM
TGI [7]: > 100 µM
TGI [8]: > 100 µM
TGI [9]: > 100 µM
TGI [10]: > 100 µM
TGI [11]: > 100 µM
TGI [12]: > 100 µM
TGI [13]: > 100 µM
TGI [14]: > 100 µM
TGI [15]: > 100 µM
TGI [16]: > 100 µM
TGI [17]: > 100 µM
TGI [18]: > 100 µM
TGI [19]: > 100 µM
TGI [20]: > 100 µM
TGI [21]: > 100 µM
TGI [22]: > 100 µM
TGI [23]: > 100 µM
TGI [24]: > 100 µM
TGI [25]: > 100 µM
TGI [26]: > 100 µM
TGI [27]: > 100 µM
TGI [28]: > 100 µM
TGI [29]: > 100 µM
TGI [30]: > 100 µM
TGI [31]: > 100 µM
TGI [32]: > 100 µM
TGI [33]: > 100 µM
TGI [34]: > 100 µM
TGI [35]: > 100 µM
TGI [36]: > 100 µM
TGI [37]: > 100 µM
TGI [38]: > 100 µM
TGI [39]: > 100 µM
TGI [40]: > 100 µM
TGI [41]: > 100 µM
TGI [42]: > 100 µM
TGI [43]: > 100 µM
TGI [44]: > 100 µM
TGI [45]: > 100 µM
TGI [46]: > 100 µM
TGI [47]: > 100 µM
TGI [48]: > 100 µM
TGI [49]: > 100 µM
TGI [50]: > 100 µM
TGI [51]: > 100 µM
TGI [52]: > 100 µM
TGI [53]: > 100 µM
TGI [54]: > 100 µM

O=C(/C=C/c1cccs1)c1ccc(Cl)s1
TGI [1]: > 10 µM
TGI [55]: > 100 µM
TGI [2]: > 100 µM
TGI [3]: > 100 µM
TGI [4]: > 100 µM
TGI [5]: 59.5 µM
TGI [6]: > 10 µM
TGI [7]: > 100 µM
TGI [8]: > 100 µM
TGI [9]: 34.7 µM
TGI [10]: 32.2 µM
TGI [56]: 35.2 µM
TGI [11]: 64.1 µM
TGI [12]: > 100 µM
TGI [14]: > 100 µM
TGI [15]: > 10 µM
TGI [16]: > 10 µM
TGI [17]: > 100 µM
TGI [18]: 44.3 µM
TGI [20]: > 100 µM
TGI [21]: > 100 µM
TGI [22]: > 100 µM
TGI [23]: > 100 µM
TGI [24]: 37.3 µM
TGI [25]: > 10 µM
TGI [26]: 52.3 µM
TGI [27]: 85.1 µM
TGI [28]: 51.2 µM
TGI [29]: > 100 µM
TGI [31]: > 100 µM
TGI [33]: > 100 µM
TGI [34]: > 100 µM
TGI [35]: > 100 µM
TGI [36]: > 100 µM
TGI [37]: 44 µM
TGI [39]: > 100 µM
TGI [40]: > 100 µM
TGI [41]: > 100 µM
TGI [57]: > 100 µM
TGI [42]: 59.3 µM
TGI [43]: > 100 µM
TGI [44]: > 100 µM
TGI [45]: 34.8 µM
TGI [46]: 47.6 µM
TGI [47]: > 100 µM
TGI [48]: 63.2 µM
TGI [49]: 51.7 µM
TGI [50]: > 100 µM
TGI [51]: > 100 µM
TGI [58]: > 100 µM
TGI [52]: > 100 µM
TGI [53]: > 100 µM
TGI [54]: 38.6 µM

CC1=C(c2ccc(C)cc2)NC(=S)C(C)C(c2ccc(C)cc2)=N1 (centres undefined)
TGI [1]: > 100 µM
TGI [55]: > 100 µM
TGI [2]: > 100 µM
TGI [3]: > 100 µM
TGI [59]: > 100 µM
TGI [4]: > 100 µM
TGI [5]: > 100 µM
TGI [6]: > 100 µM
TGI [7]: > 100 µM
TGI [8]: > 100 µM
TGI [9]: > 100 µM
TGI [10]: > 100 µM
TGI [56]: > 100 µM
TGI [11]: > 100 µM
TGI [12]: > 100 µM
TGI [15]: > 100 µM
TGI [16]: > 100 µM
TGI [17]: > 100 µM
TGI [18]: > 100 µM
TGI [19]: > 100 µM
TGI [21]: > 100 µM
TGI [22]: > 100 µM
TGI [23]: > 100 µM
TGI [24]: > 100 µM
TGI [25]: > 100 µM
TGI [26]: > 100 µM
TGI [27]: > 100 µM
TGI [28]: > 100 µM
TGI [29]: > 100 µM
TGI [31]: > 100 µM
TGI [33]: > 100 µM
TGI [34]: > 100 µM
TGI [35]: > 100 µM
TGI [37]: > 100 µM
TGI [38]: 70.9 µM
TGI [39]: > 100 µM
TGI [40]: > 100 µM
TGI [41]: > 100 µM
TGI [42]: > 100 µM
TGI [43]: > 100 µM
TGI [44]: > 100 µM
TGI [45]: > 100 µM
TGI [46]: > 100 µM
TGI [47]: > 100 µM
TGI [49]: > 100 µM
TGI [50]: > 100 µM
TGI [51]: > 100 µM
TGI [58]: > 100 µM
TGI [52]: > 100 µM
TGI [53]: > 100 µM
TGI [54]: > 100 µM

CN(C)C=Nc1c(Br)cc(Br)c2nonc12
TGI [1]: > 100 µM
TGI [55]: > 100 µM
TGI [2]: > 100 µM
TGI [3]: > 100 µM
TGI [4]: > 100 µM
TGI [5]: > 100 µM
TGI [6]: > 100 µM
TGI [7]: > 100 µM
TGI [8]: > 100 µM
TGI [9]: > 100 µM
TGI [10]: > 100 µM
TGI [56]: > 100 µM
TGI [11]: > 100 µM
TGI [12]: > 100 µM
TGI [13]: > 100 µM
TGI [14]: > 100 µM
TGI [15]: > 100 µM
TGI [16]: > 100 µM
TGI [17]: > 100 µM
TGI [18]: > 100 µM
TGI [20]: > 100 µM
TGI [21]: > 100 µM
TGI [22]: > 100 µM
TGI [23]: > 100 µM
TGI [24]: > 100 µM
TGI [25]: > 100 µM
TGI [26]: > 100 µM
TGI [27]: > 100 µM
TGI [28]: > 100 µM
TGI [29]: > 100 µM
TGI [30]: > 100 µM
TGI [31]: > 100 µM
TGI [32]: > 100 µM
TGI [33]: > 100 µM
TGI [34]: > 100 µM
TGI [35]: > 100 µM
TGI [36]: > 100 µM
TGI [37]: > 100 µM
TGI [38]: > 100 µM
TGI [39]: > 100 µM
TGI [40]: > 100 µM
TGI [41]: > 100 µM
TGI [57]: > 100 µM
TGI [42]: > 100 µM
TGI [43]: > 100 µM
TGI [44]: > 100 µM
TGI [45]: > 100 µM
TGI [46]: > 100 µM
TGI [47]: > 100 µM
TGI [48]: > 100 µM
TGI [49]: > 100 µM
TGI [50]: > 100 µM
TGI [51]: > 100 µM
TGI [52]: > 100 µM
TGI [53]: > 100 µM
TGI [54]: > 100 µM
